Source: patent publication US7863449B2, “Modulators of muscarinic receptors” (Vertex Pharmaceuticals Incorporated, priority 2004, dated 2011)
Counter-ions that a name gives are not always drawn.

Key:
M4 muscarinic receptor = molecular target: T1, M4 muscarinic receptor (Homo sapiens, UniProt P08173); test: Functional mobilization of intracellular calcium (FLIPR), M4-CHO cells; type: cell-based; details: for Emax: 100% efficacy is the maximum response obtained using Carbachol as a control; for M4 Activity: M4-CHO cells, FLIPR calcium mobilization
T1 construct: expressed in transfected cells; host or cells: CHO (M4-CHO)
T1 sequence (P08173 1-479): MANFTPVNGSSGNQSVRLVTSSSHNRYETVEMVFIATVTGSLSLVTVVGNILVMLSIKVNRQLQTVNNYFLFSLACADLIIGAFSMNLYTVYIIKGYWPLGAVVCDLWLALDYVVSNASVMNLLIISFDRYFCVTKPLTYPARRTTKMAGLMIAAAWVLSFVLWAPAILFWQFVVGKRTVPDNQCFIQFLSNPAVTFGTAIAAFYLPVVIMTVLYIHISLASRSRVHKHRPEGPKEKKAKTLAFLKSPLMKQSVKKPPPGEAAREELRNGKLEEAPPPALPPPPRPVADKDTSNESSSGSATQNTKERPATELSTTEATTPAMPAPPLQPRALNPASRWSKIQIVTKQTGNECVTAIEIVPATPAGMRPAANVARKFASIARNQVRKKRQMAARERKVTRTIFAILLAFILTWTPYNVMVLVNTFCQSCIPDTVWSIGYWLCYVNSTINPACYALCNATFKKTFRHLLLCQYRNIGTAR
Method in brief: (§1)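 Calcium flux recorded 60 s (ex 488, em 540 nm) in dye-loaded M1- or M4-CHO cells in pH 7.4 buffer with 1 mM probenecid. Inhibition measured against carbachol EC80 after 15 min compound pre-incubation or co-addition; agonism measured by compound addition alone. Final DMSO 0.5%.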

M1 muscarinic receptor = molecular target: T2, M1 muscarinic receptor (Homo sapiens, UniProt P11229); test: Functional mobilization of intracellular calcium (FLIPR), M1-CHO cells; type: cell-based; details: for Emax: 100% efficacy is the maximum response obtained using Carbachol as a control; for M1 Activity: M1-CHO cells, FLIPR calcium mobilization
T2 construct: expressed in transfected cells; host or cells: CHO (M1-CHO)
T2 sequence (P11229 1-460): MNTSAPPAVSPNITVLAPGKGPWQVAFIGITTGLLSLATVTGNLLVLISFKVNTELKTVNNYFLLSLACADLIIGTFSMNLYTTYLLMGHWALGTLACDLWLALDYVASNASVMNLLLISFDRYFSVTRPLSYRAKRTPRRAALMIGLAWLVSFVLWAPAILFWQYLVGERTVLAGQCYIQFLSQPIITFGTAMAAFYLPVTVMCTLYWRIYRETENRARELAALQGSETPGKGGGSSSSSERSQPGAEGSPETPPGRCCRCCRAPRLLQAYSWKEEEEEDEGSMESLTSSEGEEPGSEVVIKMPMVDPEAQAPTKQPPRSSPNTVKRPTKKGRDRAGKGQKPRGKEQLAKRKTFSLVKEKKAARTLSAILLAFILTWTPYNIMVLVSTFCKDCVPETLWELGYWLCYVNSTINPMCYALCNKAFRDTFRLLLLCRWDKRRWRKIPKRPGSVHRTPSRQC
Method in brief: as §1

## CCOC(=O)N1CCC(N2CCC3(CC2)CN(C(=O)Nc2c(C)noc2C)Cc2ccccc23)CC1 [compound 84]
M4 muscarinic receptor
  Emax: < 25%
  M4 Activity: +++ (activity was measured to be less than 1.0 μM)
M1 muscarinic receptor
  Emax: 25 to 100%
  M1 Activity: +++ (activity was measured to be less than 1.0 μM)

## CCOC(=O)N1CCC(N2CCC3(CC2)CN(CC2CCCCC2)Cc2ccccc23)CC1 [compound 87]
M4 muscarinic receptor
  Emax: < 25%
  M4 Activity: ++ (activity was measured to be from 1.0 μM to 5.0 μM)
M1 muscarinic receptor
  Emax: 25 to 100%
  M1 Activity: ++ (activity was measured to be from 1.0 μM to 5.0 μM)

## CC(=O)N1Cc2ccccc2C2(CCN(C3CCN(C(=O)OC(C)C)CC3)CC2)C1 [compound 88]
M4 muscarinic receptor
  Emax: 25 to 100%
  M4 Activity: +++ (activity was measured to be less than 1.0 μM)
M1 muscarinic receptor
  Emax: 25 to 100%
  M1 Activity: +++ (activity was measured to be less than 1.0 μM)

## COCCN1CCC2(CC1)CN(C(C)=O)Cc1ccccc12 [compound 89]
M4 muscarinic receptor
  Emax: < 25%
  M4 Activity: + (activity was measured to be greater than 5.0 μM)
M1 muscarinic receptor
  Emax: < 25%
  M1 Activity: + (activity was measured to be greater than 5.0 μM)

## COCCOC(=O)N1C2CCC1CC(N1CCC3(CC1)CN(C(C)=O)Cc1ccccc13)C2 (stereo not shown) [compound 90]
M4 muscarinic receptor
  Emax: 25 to 100%
  M4 Activity: +++ (activity was measured to be less than 1.0 μM)
M1 muscarinic receptor
  Emax: 25 to 100%
  M1 Activity: +++ (activity was measured to be less than 1.0 μM)

## CCNC(=O)N1Cc2ccccc2C2(CCN(CC3CCN(C(=O)OCC)CC3)CC2)C1 [compound 91]
M4 muscarinic receptor
  Emax: 25 to 100%
  M4 Activity: +++ (activity was measured to be less than 1.0 μM)
M1 muscarinic receptor
  Emax: 25 to 100%
  M1 Activity: +++ (activity was measured to be less than 1.0 μM)

## CCOC(=O)N1C2CCC1CC(N1CCC3(CC1)CN(C(=O)c1cnn(-c4ccccc4)c1C(F)(F)F)Cc1ccccc13)C2 (stereo not shown) [compound 92]
M4 muscarinic receptor
  Emax: 25 to 100%
  M4 Activity: ++ (activity was measured to be from 1.0 μM to 5.0 μM)
M1 muscarinic receptor
  Emax: 25 to 100%
  M1 Activity: ++ (activity was measured to be from 1.0 μM to 5.0 μM)

## CC(=O)N1Cc2ccccc2C2(CCN(C3CCC4(CC3)OCCO4)CC2)C1 [compound 93]
M4 muscarinic receptor
  Emax: < 25%
  M4 Activity: + (activity was measured to be greater than 5.0 μM)
M1 muscarinic receptor
  Emax: 25 to 100%
  M1 Activity: + (activity was measured to be greater than 5.0 μM)

## CC(=O)N1Cc2ccccc2C2(CCN(CC3CC4CCC3CC4)CC2)C1 (stereo not shown) [compound 94]
M4 muscarinic receptor
  Emax: 25 to 100%
  M4 Activity: +++ (activity was measured to be less than 1.0 μM)
M1 muscarinic receptor
  Emax: 25 to 100%
  M1 Activity: ++ (activity was measured to be from 1.0 μM to 5.0 μM)

## O=C(OC1CCC1)N1Cc2ccccc2C2(CCN(C3CC4CCC(C3)N4C(=O)O[C@H]3CCOC3)CC2)C1 (stereo partly shown) [compound 95]
M4 muscarinic receptor
  Emax: 25 to 100%
  M4 Activity: +++ (activity was measured to be less than 1.0 μM)
M1 muscarinic receptor
  Emax: 25 to 100%
  M1 Activity: +++ (activity was measured to be less than 1.0 μM)

## COCCOC(=O)N1Cc2ccccc2C2(CCN(C3CC4CCC(C3)N4C(=O)OCCOC)CC2)C1 (stereo not shown) [compound 96]
M4 muscarinic receptor
  Emax: 25 to 100%
  M4 Activity: +++ (activity was measured to be less than 1.0 μM)
M1 muscarinic receptor
  Emax: 25 to 100%
  M1 Activity: +++ (activity was measured to be less than 1.0 μM)

## CC(=O)N1Cc2ccccc2C2(CCN(Cc3nccs3)CC2)C1 [compound 98]
M4 muscarinic receptor
  Emax: < 25%
  M4 Activity: + (activity was measured to be greater than 5.0 μM)
M1 muscarinic receptor
  Emax: < 25%
  M1 Activity: + (activity was measured to be greater than 5.0 μM)

## CCCOC(=O)N1Cc2ccccc2C2(CCN(C3CC4CCC(C3)N4C(=O)OCC)CC2)C1 (stereo not shown) [compound 99]
M4 muscarinic receptor
  Emax: 25 to 100%
  M4 Activity: +++ (activity was measured to be less than 1.0 μM)
M1 muscarinic receptor
  Emax: 25 to 100%
  M1 Activity: +++ (activity was measured to be less than 1.0 μM)

## CCCOc1ccc(CN2CCC3(CC2)CN(C(C)=O)Cc2ccccc23)cc1 [compound 100]
M4 muscarinic receptor
  Emax: < 25%
  M4 Activity: + (activity was measured to be greater than 5.0 μM)
M1 muscarinic receptor
  Emax: < 25%
  M1 Activity: + (activity was measured to be greater than 5.0 μM)

## CC(=O)N1Cc2ccccc2C2(CCN(Cc3cc(C)c(C)o3)CC2)C1 [compound 101]
M4 muscarinic receptor
  Emax: < 25%
  M4 Activity: + (activity was measured to be greater than 5.0 μM)
M1 muscarinic receptor
  Emax: < 25%
  M1 Activity: + (activity was measured to be greater than 5.0 μM)

## O=C(C1CC1)N1Cc2ccccc2C2(CCN(C3CC4CCC(C3)N4C(=O)OC3CCC3)CC2)C1 (stereo not shown) [compound 102]
M4 muscarinic receptor
  Emax: 25 to 100%
  M4 Activity: +++ (activity was measured to be less than 1.0 μM)
M1 muscarinic receptor
  Emax: 25 to 100%
  M1 Activity: +++ (activity was measured to be less than 1.0 μM)

## CCOC(=O)N1CCC(C)(CN2CCC3(CC2)CN(C(C)=O)Cc2ccccc23)CC1 [compound 103, ethyl 4-((2-acetyl-2,3-dihydro-1H-spiro[isoquinoline-4,4′-piperidine]-1′-yl)methyl)-4-methylpiperidine-1-carboxylate hydrochloride]
M4 muscarinic receptor
  Emax: 25 to 100%
  M4 Activity: +++ (activity was measured to be less than 1.0 μM)
M1 muscarinic receptor
  Emax: 25 to 100%
  M1 Activity: +++ (activity was measured to be less than 1.0 μM)

## CCOC(=O)N1CCC(N2CCC3(CC2)CN(C(=O)NC(C)C)Cc2ccccc23)CC1 [compound 104]
M4 muscarinic receptor
  Emax: 25 to 100%
  M4 Activity: +++ (activity was measured to be less than 1.0 μM)
M1 muscarinic receptor
  Emax: 25 to 100%
  M1 Activity: +++ (activity was measured to be less than 1.0 μM)

## COC(=O)c1cccc(CN2CCC3(CC2)CN(C(C)=O)Cc2ccccc23)c1 [compound 105]
M4 muscarinic receptor
  Emax: < 25%
  M4 Activity: + (activity was measured to be greater than 5.0 μM)
M1 muscarinic receptor
  Emax: < 25%
  M1 Activity: + (activity was measured to be greater than 5.0 μM)

## CCCCNC(=O)N1Cc2ccccc2C2(CCN(C3CCN(C(=O)OCC)CC3)CC2)C1 [compound 106]
M4 muscarinic receptor
  Emax: 25 to 100%
  M4 Activity: +++ (activity was measured to be less than 1.0 μM)
M1 muscarinic receptor
  Emax: 25 to 100%
  M1 Activity: +++ (activity was measured to be less than 1.0 μM)

## COc1ccc(CN2CCC3(CC2)CN(C(C)=O)Cc2ccccc23)cc1F [compound 107]
M4 muscarinic receptor
  Emax: < 25%
  M4 Activity: + (activity was measured to be greater than 5.0 μM)
M1 muscarinic receptor
  Emax: < 25%
  M1 Activity: + (activity was measured to be greater than 5.0 μM)

## CCOC(=O)N1CCC(N2CCC3(CC2)CN(C(=O)N2CCCC2)Cc2ccccc23)CC1 [compound 110]
M4 muscarinic receptor
  Emax: 25 to 100%
  M4 Activity: +++ (activity was measured to be less than 1.0 μM)
M1 muscarinic receptor
  Emax: 25 to 100%
  M1 Activity: +++ (activity was measured to be less than 1.0 μM)

## CCOC(=O)N1C2CCC(N3CCC4(CC3)CN(C(=O)OC3CCC3)Cc3ccccc34)CC1CC2 (stereo not shown) [compound 112]
M4 muscarinic receptor
  Emax: 25 to 100%
  M4 Activity: +++ (activity was measured to be less than 1.0 μM)
M1 muscarinic receptor
  Emax: 25 to 100%
  M1 Activity: +++ (activity was measured to be less than 1.0 μM)

## CC(=O)N1Cc2ccccc2C2(CCN(Cc3ccc(F)cc3)CC2)C1 [compound 115]
M4 muscarinic receptor
  Emax: < 25%
  M4 Activity: + (activity was measured to be greater than 5.0 μM)
M1 muscarinic receptor
  Emax: < 25%
  M1 Activity: + (activity was measured to be greater than 5.0 μM)

## CC(=O)N1Cc2ccccc2C2(CCN(Cc3ccc4c(c3)CCO4)CC2)C1 [compound 116]
M4 muscarinic receptor
  Emax: < 25%
  M4 Activity: + (activity was measured to be greater than 5.0 μM)
M1 muscarinic receptor
  Emax: < 25%
  M1 Activity: + (activity was measured to be greater than 5.0 μM)

## COC(=O)c1ccccc1CN1CCC2(CC1)CN(C(C)=O)Cc1ccccc12 [compound 118]
M4 muscarinic receptor
  Emax: < 25%
  M4 Activity: + (activity was measured to be greater than 5.0 μM)
M1 muscarinic receptor
  Emax: < 25%
  M1 Activity: + (activity was measured to be greater than 5.0 μM)

## CCCS(=O)(=O)N1Cc2ccccc2C2(CCN(C3CC4CCC(C3)N4C(=O)OC3CCC3)CC2)C1 (stereo not shown) [compound 119]
M4 muscarinic receptor
  Emax: 25 to 100%
  M4 Activity: +++ (activity was measured to be less than 1.0 μM)
M1 muscarinic receptor
  Emax: 25 to 100%
  M1 Activity: +++ (activity was measured to be less than 1.0 μM)

## CCOC(=O)N1CCC(N2CCC3(CC2)CN(C(=O)OCC)Cc2ccccc23)CC1 [compound 120]
M4 muscarinic receptor
  Emax: 25 to 100%
  M4 Activity: +++ (activity was measured to be less than 1.0 μM)
M1 muscarinic receptor
  Emax: 25 to 100%
  M1 Activity: +++ (activity was measured to be less than 1.0 μM)
